How the values were obtained:
[1] = target: Plasminogen (Homo sapiens, UniProt P00747); assay: Compound was tested for its inhibitory activity against Plasmin
[2] = target: Vitamin K-dependent protein C (Homo sapiens, UniProt P04070); assay: Compound was evaluated for the inhibitory activity against Activated protein C
[3] = target: Coagulation factor X (Homo sapiens, UniProt P00742); assay: In vitro inhibition of coagulation factor Xa.
[4] = target: Tissue-type plasminogen activator (Homo sapiens, UniProt P00750); assay: Compound was tested for its inhibitory activity against tissue plasminogen activator
Sequence of Tissue-type plasminogen activator (P00750 whole entry): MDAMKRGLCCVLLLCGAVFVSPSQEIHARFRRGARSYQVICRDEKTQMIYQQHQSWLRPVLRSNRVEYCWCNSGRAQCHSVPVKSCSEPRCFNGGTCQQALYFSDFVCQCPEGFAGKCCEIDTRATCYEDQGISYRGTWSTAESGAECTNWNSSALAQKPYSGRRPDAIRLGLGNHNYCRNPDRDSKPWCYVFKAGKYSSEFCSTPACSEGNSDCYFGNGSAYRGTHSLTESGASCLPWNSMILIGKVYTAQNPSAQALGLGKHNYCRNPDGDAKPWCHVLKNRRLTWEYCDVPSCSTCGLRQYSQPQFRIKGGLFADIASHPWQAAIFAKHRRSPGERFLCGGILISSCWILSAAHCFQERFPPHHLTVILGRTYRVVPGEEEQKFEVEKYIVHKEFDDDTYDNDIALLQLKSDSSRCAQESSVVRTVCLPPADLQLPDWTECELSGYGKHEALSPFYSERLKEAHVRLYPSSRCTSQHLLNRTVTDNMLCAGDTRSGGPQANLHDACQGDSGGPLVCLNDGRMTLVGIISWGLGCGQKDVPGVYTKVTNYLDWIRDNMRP

[5] = target: Serine protease 1 (Homo sapiens, UniProt P07477); assay: In vitro inhibition of trypsin.
Sequence of Serine protease 1 (P07477 whole entry): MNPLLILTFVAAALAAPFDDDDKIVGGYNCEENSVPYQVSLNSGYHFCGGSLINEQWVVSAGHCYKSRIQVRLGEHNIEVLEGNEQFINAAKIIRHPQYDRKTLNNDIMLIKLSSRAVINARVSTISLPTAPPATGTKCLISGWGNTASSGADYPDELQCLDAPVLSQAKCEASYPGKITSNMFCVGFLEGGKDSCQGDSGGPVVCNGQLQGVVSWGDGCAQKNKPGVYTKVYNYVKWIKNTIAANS

[6] = target: Prothrombin (Homo sapiens, UniProt P00734); assay: In vitro inhibition of coagulation factor IIa.
[7] = organism: Homo sapiens; assay: Ability to prolong the activated partial thromboplastin time (APTT) in plasma from human; format: functional, cell-free
[8] = organism: Rattus norvegicus; assay: Ability to prolong the activated partial thromboplastin time (APTT) in plasma from rat
[9] = organism: Canis lupus familiaris; assay: Ability to prolong the activated partial thromboplastin time (APTT) in plasma from dog
[10] = organism: Oryctolagus cuniculus; assay: Ability to prolong the activated partial thromboplastin time (APTT) in plasma from rabbit

Sequence of Plasminogen (P00747 97-580 limits assumed): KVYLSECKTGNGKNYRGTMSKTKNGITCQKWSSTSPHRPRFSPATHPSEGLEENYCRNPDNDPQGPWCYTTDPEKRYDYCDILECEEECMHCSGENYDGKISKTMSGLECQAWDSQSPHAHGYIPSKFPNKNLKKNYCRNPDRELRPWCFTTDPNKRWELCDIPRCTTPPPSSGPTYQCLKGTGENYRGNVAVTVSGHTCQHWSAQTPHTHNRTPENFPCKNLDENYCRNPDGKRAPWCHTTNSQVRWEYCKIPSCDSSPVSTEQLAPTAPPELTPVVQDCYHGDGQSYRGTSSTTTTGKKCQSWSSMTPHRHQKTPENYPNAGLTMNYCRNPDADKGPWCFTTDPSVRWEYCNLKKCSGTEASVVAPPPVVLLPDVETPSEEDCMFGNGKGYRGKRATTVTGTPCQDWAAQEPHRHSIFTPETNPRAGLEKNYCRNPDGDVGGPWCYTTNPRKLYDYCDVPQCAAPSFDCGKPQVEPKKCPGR
Sequence of Plasminogen (P00747 581-810 limits assumed): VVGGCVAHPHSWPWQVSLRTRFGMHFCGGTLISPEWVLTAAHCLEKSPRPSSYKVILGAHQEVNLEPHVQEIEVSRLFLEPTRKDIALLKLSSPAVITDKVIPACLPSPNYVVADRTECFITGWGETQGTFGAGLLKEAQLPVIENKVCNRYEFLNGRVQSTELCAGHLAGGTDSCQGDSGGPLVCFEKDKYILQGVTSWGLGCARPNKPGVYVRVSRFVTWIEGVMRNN
Sequence of Coagulation factor X (P00742 41-179 limits assumed): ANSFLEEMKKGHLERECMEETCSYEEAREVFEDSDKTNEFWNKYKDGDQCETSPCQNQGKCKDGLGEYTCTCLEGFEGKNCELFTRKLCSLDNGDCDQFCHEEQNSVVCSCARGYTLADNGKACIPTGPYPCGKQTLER
Sequence of Coagulation factor X (P00742 235-488 limits assumed): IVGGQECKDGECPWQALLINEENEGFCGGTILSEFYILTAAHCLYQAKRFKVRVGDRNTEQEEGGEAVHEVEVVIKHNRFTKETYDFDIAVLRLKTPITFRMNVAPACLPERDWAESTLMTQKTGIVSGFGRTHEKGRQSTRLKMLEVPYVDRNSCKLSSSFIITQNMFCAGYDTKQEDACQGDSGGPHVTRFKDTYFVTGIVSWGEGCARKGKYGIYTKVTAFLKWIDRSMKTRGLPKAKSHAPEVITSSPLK
Sequence of Vitamin K-dependent protein C (P04070 43-197 limits assumed): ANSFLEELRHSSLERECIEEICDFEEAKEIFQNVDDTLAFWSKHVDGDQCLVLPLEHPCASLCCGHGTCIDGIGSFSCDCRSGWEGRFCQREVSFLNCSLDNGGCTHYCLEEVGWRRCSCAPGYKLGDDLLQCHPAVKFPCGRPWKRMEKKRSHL
Sequence of Vitamin K-dependent protein C (P04070 212-461 limits assumed): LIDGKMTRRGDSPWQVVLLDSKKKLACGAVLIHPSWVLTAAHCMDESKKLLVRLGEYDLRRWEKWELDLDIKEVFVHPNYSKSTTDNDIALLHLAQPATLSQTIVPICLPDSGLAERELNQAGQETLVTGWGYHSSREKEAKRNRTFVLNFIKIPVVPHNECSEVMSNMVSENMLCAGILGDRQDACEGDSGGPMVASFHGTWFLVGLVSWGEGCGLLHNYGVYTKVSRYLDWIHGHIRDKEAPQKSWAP

| SMILES | Ki [3] | Ki [5] | Ki [6] | further results |
| --- | --- | --- | --- | --- |
| CC(C)(C)c1ccc(C(=O)NCCCc2cc(C(=N)N)ccc2O)cc1 | 59 nM | 2200 nM | > 4000 nM |  |
| N=C(N)c1ccc(O)c(CCCNC(=O)c2ccc(-c3ncc[nH]3)cc2)c1 | 58 nM | ~2900 nM | > 4000 nM |  |
| N=C(N)c1ccc(O)c(CCCNC(=O)c2ccc(-c3ccccn3)s2)c1 | 131 nM | > 2900 nM | > 4000 nM |  |
| CC(C)(C)c1ccc(C(=O)NC/C=C/c2cc(C(=N)N)ccc2O)cc1 | 61 nM | 2300 nM | 3200 nM |  |
| N=C(N)c1cccc(CCCNC(=O)c2ccc(-c3ccccc3)cc2)c1 | 1000 nM |  |  |  |
| N=C(N)c1ccc(O)c(/C=C/CNC(=O)c2ccc(-c3ccc(C(N)=O)cc3)cc2)c1 | 20 nM | 1400 nM | 2900 nM |  |
| N=C(N)c1ccc(O)c(/C=C/CNC(=O)c2ccc(-c3c[nH]cn3)cc2)c1 | 19 nM | 1800 nM | > 4000 nM |  |
| N=C(N)c1ccc(O)c(/C=C/CNC(=O)c2ccc(-c3ccccc3)cc2)c1 | 51 nM | > 2900 nM | > 4000 nM |  |
| N=C(N)c1ccc(O)c(/C=C/CNC(=O)c2cc3nnc(O)cc3s2)c1 | 184 nM | 1400 nM | > 4000 nM |  |
| N=C(N)c1ccc(O)c(CCCNC(=O)c2ccc(-c3c[nH]cn3)cc2)c1 | 254 nM | ~2900 nM | > 4000 nM |  |
| N=C(N)c1ccc(O)c(/C=C/CNC(=O)c2ccc(-c3ccc(S(N)(=O)=O)cc3)cc2)c1 | 12 nM | 1600 nM | > 4000 nM |  |
| N=C(N)c1ccc(O)c(CCCNC(=O)c2ccc(-c3ccccc3)cc2)c1 | 88 nM | > 2900 nM | > 4000 nM |  |
| N=C(N)c1ccc(O)c(/C=C/CNC(=O)c2ccc(-c3ncc[nH]3)cc2)c1 | 128 nM | 1400 nM | > 4000 nM |  |
| N=C(N)c1ccc(O)c(/C=C/CNC(=O)c2ccc(-c3ccccn3)s2)c1 | 37 nM | 1400 nM | > 4000 nM |  |
| N=C(N)c1ccc(O)c(CCCNC(=O)c2ccc(-c3cccnc3)cc2)c1 | 38 nM | 1900 nM | > 4000 nM |  |
| N=C(N)c1ccc(O)c(CCCNC(=O)c2cc3ccc(Cl)cc3s2)c1 | 181 nM | > 2900 nM | ~4000 nM |  |

Molecules with a lower Ki [3], results first:

| Ki [3] | Ki [5] | Ki [6] | SMILES | further results |
| --- | --- | --- | --- | --- |
| 0.5 nM |  |  | COC(=O)[C@H](Cc1cccc(C(=N)N)c1)[C@@H](C)NC(=O)c1ccc(-c2cccc(C(N)=O)c2)cc1 | Ki [1]: 140 nM; Ki [2]: > 18500 nM; Ki [4]: > 8700 nM |
| 5 nM | > 2900 nM | > 4000 nM | N=C(N)c1ccc(O)c(/C=C/CNC(=O)c2ccc(-c3cccc(C(N)=O)c3)cc2)c1 |  |
| 7 nM | > 2900 nM | > 4000 nM | N=C(N)c1ccc(O)c(CCCNC(=O)c2ccc(-c3cccc(C(N)=O)c3)cc2)c1 | Ki [1]: 3500 nM; Ki [2]: 15000 nM; Ki [4]: > 8700 nM |
| 5 nM |  |  | COC(=O)[C@H](Cc1cccc(C(=N)N)c1)[C@@H](C)NC(=O)c1ccc(-c2ccccc2)cc1 |  |
| 2 nM | 1500 nM | > 4000 nM | N=C(N)c1ccc(O)c(/C=C/CNC(=O)c2ccc(-c3ccccc3S(N)(=O)=O)cc2)c1 |  |
| 9 nM | 240 nM | > 4000 nM | N=C(N)c1ccc(O)c(/C=C/CNC(=O)c2ccc(-c3cccc(S(N)(=O)=O)c3)cc2)c1 |  |
| 0.75 nM | 2200 nM | > 4000 nM | N=C(N)c1ccc(O)c(/C=C/CNC(=O)c2ccc(-c3ccnc(C(N)=O)c3)cc2)c1 | Ki [1]: > 7300 nM; Ki [2]: ~18500 nM; Concentration [7]: 0.87 µM; Concentration [8]: 1.7 µM; Concentration [9]: 0.99 µM; Ki [4]: 7700 nM; Concentration [10]: 0.51 µM |
